SMILES strings stand for the structures. Where a SMILES comes first, the peptide text is derived from it. [ ]: non-standard residue; d: D form. The star is where a group is joined. SCH2CH2NHAc = CC(=O)NCCS*; Orn = NCCC[C@H](N)C(=O)O

In ChEMBL document CHEMBL1135258, “Substrate spectrum of tyrocidine thioesterase probed with randomized peptide N-acetylcysteamine thioesters” (Bioorg Med Chem Lett, 2002) one finds k cat and Ratio data, which are given here for 18 molecules.

The target in test [1] is T1, Thioesterase GrsT homolog tycF (Brevibacillus brevis) (UniProt O30412).
T1 sequence (whole entry): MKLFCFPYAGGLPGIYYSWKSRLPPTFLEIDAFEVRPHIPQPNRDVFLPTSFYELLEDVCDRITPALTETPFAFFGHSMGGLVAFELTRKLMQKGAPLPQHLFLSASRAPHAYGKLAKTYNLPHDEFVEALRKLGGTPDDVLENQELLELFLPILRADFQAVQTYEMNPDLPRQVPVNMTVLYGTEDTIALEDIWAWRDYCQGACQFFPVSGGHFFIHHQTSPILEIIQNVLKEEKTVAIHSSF
Kind of test: Apparent kinetic constant (Kcat) for tyrocidine thioesterase amplified from Bacillus brevis (ATCC8185).

For test [2], the target named is T1, Thioesterase GrsT homolog tycF (Brevibacillus brevis). Kind of test: Catalytic efficiency (Kcat/Km) was determined. Further details: unit not given here.

Regarding `CC(=O)NCCSC(=O)[C@H](CC(C)C)NC(=O)[C@H](CCCN)NC(=O)[C@@H](NC(=O)[C@H](Cc1ccc(O)cc1)NC(=O)[C@H](CCC(N)=O)NC(=O)[C@H](CC(N)=O)NC(=O)[C@@H](Cc1ccccc1)NC(=O)[C@H](Cc1ccccc1)NC(=O)[C@@H]1CCCN1C(=O)[C@H](N)Cc1ccccc1)C(C)C` (stereo in doubt; form 1), the k cat in test [1] was determined as 0.733 s⁻¹. In test [2], the Ratio is 4.78.
`CC(=O)NCCSC(=O)[C@H](CC(C)C)NC(=O)[C@H](CCCN)NC(=O)[C@@H](NC(=O)[C@H](Cc1ccc(O)cc1)NC(=O)[C@H](CCC(N)=O)NC(=O)[C@H](CC(N)=O)NC(=O)[C@@H](Cc1ccccc1)NC(=O)[C@H](Cc1ccccc1)NC(=O)[C@H](CC(N)=O)NC(=O)[C@H](N)Cc1ccccc1)C(C)C`: the k cat in test [1] was found to be 0.117 s⁻¹. The Ratio in test [2] was 0.084.
As for `CC(=O)NCCSC(=O)[C@H](CC(C)C)NC(=O)[C@H](CCCN)NC(=O)[C@@H](NC(=O)[C@H](Cc1ccc(O)cc1)NC(=O)[C@H](CCC(N)=O)NC(=O)[C@H](CC(C)C)NC(=O)[C@@H](Cc1ccccc1)NC(=O)[C@H](Cc1ccccc1)NC(=O)[C@@H]1CCCN1C(=O)[C@H](N)Cc1ccccc1)C(C)C`, in test [1], the k cat came to 0.167 s⁻¹. Moreover, the Ratio in test [2] was 0.23.
For `CC(=O)NCCSC(=O)[C@H](CC(C)C)NC(=O)[C@H](CCCN)NC(=O)[C@@H](NC(=O)[C@H](Cc1ccc(O)cc1)NC(=O)[C@H](CCC(N)=O)NC(=O)[C@H](CC(N)=O)NC(=O)[C@@H](NC(=O)[C@H](Cc1ccccc1)NC(=O)[C@@H]1CCCN1C(=O)[C@H](N)Cc1ccccc1)C(C)C)C(C)C`, in that order: 0.45 s⁻¹ and 0.19.
For `CC(=O)NCCSC(=O)[C@H](CC(C)C)NC(=O)[C@H](CCCN)NC(=O)[C@@H](NC(=O)[C@H](Cc1ccc(O)cc1)NC(=O)[C@H](CCC(N)=O)NC(=O)[C@H](CC(N)=O)NC(=O)[C@H](Cc1ccccc1)NC(=O)[C@H](Cc1ccccc1)NC(=O)[C@@H]1CCCN1C(=O)[C@H](N)Cc1ccccc1)C(C)C`, in test [1], the k cat turned out to be 0.105 s⁻¹. Moreover, the Ratio in test [2] was found to be 1.3.
Turning to `CC(=O)NCCSC(=O)[C@H](CC(C)C)NC(=O)[C@H](CCCN)NC(=O)[C@@H](NC(=O)[C@H](Cc1ccc(O)cc1)NC(=O)[C@H](CC(C)C)NC(=O)[C@H](CC(N)=O)NC(=O)[C@@H](Cc1ccccc1)NC(=O)[C@H](Cc1ccccc1)NC(=O)[C@@H]1CCCN1C(=O)[C@H](N)Cc1ccccc1)C(C)C`, the k cat in test [1] worked out at 0.717 s⁻¹. For the same molecule, the Ratio in test [2] was 0.32.
As for `CC(=O)NCCSC(=O)[C@H](CC(C)C)NC(=O)[C@H](CCCN)NC(=O)[C@@H](NC(=O)[C@H](Cc1ccc(O)cc1)NC(=O)[C@H](CCC(N)=O)NC(=O)[C@H](CC(N)=O)NC(=O)[C@@H](Cc1ccccc1)NC(=O)[C@H](Cc1ccccc1)NC(=O)[C@H](C)NC(=O)[C@H](N)Cc1ccccc1)C(C)C` (H-[dF]AF[dF]NQYV[Orn]L-SCH2CH2NHAc), the k cat in test [1] was 0.117 s⁻¹. For the same molecule, the Ratio in test [2] stood at 0.23.
On to `CC(=O)NCCSC(=O)[C@H](CC(C)C)NC(=O)[C@H](CCCN)NC(=O)[C@@H](NC(=O)[C@H](Cc1ccc(O)cc1)NC(=O)[C@@H](NC(=O)[C@H](CC(N)=O)NC(=O)[C@@H](Cc1ccccc1)NC(=O)[C@H](Cc1ccccc1)NC(=O)[C@@H]1CCCN1C(=O)[C@H](N)Cc1ccccc1)C(C)C)C(C)C`, for which the k cat in test [1] was determined as 0.16 s⁻¹. The Ratio in test [2] stood at 0.18.
Consider `CC(=O)NCCSC(=O)[C@H](CC(C)C)NC(=O)[C@H](CCCN)NC(=O)[C@@H](NC(=O)[C@H](Cc1ccc(O)cc1)NC(=O)[C@H](CCC(N)=O)NC(=O)[C@H](CC(N)=O)NC(=O)[C@H](CC(C)C)NC(=O)[C@H](Cc1ccccc1)NC(=O)[C@@H]1CCCN1C(=O)[C@H](N)Cc1ccccc1)C(C)C`, for which the k cat in test [1] was determined as 0.138 s⁻¹. Also, the Ratio in test [2] stood at 0.28.
Take `CC(=O)NCCSC(=O)[C@H](CC(C)C)NC(=O)[C@H](CCCN)NC(=O)[C@@H](NC(=O)[C@H](Cc1ccc(O)cc1)NC(=O)[C@H](CCC(N)=O)NC(=O)[C@H](CC(N)=O)NC(=O)[C@@H]1CCCN1C(=O)[C@H](Cc1ccccc1)NC(=O)[C@@H]1CCCN1C(=O)[C@H](N)Cc1ccccc1)C(C)C`: the k cat in test [1] came out at 0.25 s⁻¹. For the same molecule, the Ratio in test [2] was 0.11.
For the molecule `CC(=O)NCCSC(=O)[C@H](CC(C)C)NC(=O)[C@H](CCCN)NC(=O)[C@@H](NC(=O)[C@H](Cc1ccc(O)cc1)NC(=O)[C@H](CCC(N)=O)NC(=O)[C@H](CC(N)=O)NC(=O)[C@H](CO)NC(=O)[C@H](Cc1ccccc1)NC(=O)[C@@H]1CCCN1C(=O)[C@H](N)Cc1ccccc1)C(C)C`, in test [1], the k cat worked out at 0.13 s⁻¹. In addition, in test [2], the Ratio is 0.57.
For `CC[C@@H](C)[C@H](NC(=O)[C@H](CC(N)=O)NC(=O)[C@@H](Cc1ccccc1)NC(=O)[C@H](Cc1ccccc1)NC(=O)[C@@H]1CCCN1C(=O)[C@H](N)Cc1ccccc1)C(=O)N[C@@H](Cc1ccc(O)cc1)C(=O)N[C@H](C(=O)N[C@@H](CCCN)C(=O)N[C@@H](CC(C)C)C(=O)SCCNC(C)=O)C(C)C`, in that order: 0.123 s⁻¹ and 0.09.
On to `CC(=O)NCCSC(=O)[C@H](CC(C)C)NC(=O)[C@H](CCCN)NC(=O)[C@@H](NC(=O)[C@H](Cc1ccc(O)cc1)NC(=O)[C@H](CCC(N)=O)NC(=O)[C@H](CC(N)=O)NC(=O)[C@H](CC(=O)O)NC(=O)[C@H](Cc1ccccc1)NC(=O)[C@@H]1CCCN1C(=O)[C@H](N)Cc1ccccc1)C(C)C`, for which the k cat in test [1] was 0.233 s⁻¹. In addition, the Ratio in test [2] is 0.058.
As for `CC(=O)NCCSC(=O)[C@H](CC(C)C)NC(=O)[C@H](CCCN)NC(=O)[C@@H](NC(=O)[C@H](Cc1ccc(O)cc1)NC(=O)[C@H](CC(N)=O)NC(=O)[C@H](CC(N)=O)NC(=O)[C@@H](Cc1ccccc1)NC(=O)[C@H](Cc1ccccc1)NC(=O)[C@@H]1CCCN1C(=O)[C@H](N)Cc1ccccc1)C(C)C`, in test [1], the k cat stood at 1.33 s⁻¹. In addition, the Ratio in test [2] came to 0.72.
For `CSCC[C@H](NC(=O)[C@H](Cc1ccccc1)NC(=O)[C@@H]1CCCN1C(=O)[C@H](N)Cc1ccccc1)C(=O)N[C@@H](CC(N)=O)C(=O)N[C@@H](CCC(N)=O)C(=O)N[C@@H](Cc1ccc(O)cc1)C(=O)N[C@H](C(=O)N[C@@H](CCCN)C(=O)N[C@@H](CC(C)C)C(=O)SCCNC(C)=O)C(C)C`, the k cat in test [1] amounted to 0.267 s⁻¹. In addition, in test [2], the Ratio was found to be 0.8.
With `CC(=O)NCCSC(=O)[C@H](CC(C)C)NC(=O)[C@H](CCCN)NC(=O)[C@@H](NC(=O)[C@H](Cc1ccc(O)cc1)NC(=O)[C@H](CCC(N)=O)NC(=O)[C@H](CC(N)=O)NC(=O)CNC(=O)[C@H](Cc1ccccc1)NC(=O)[C@@H]1CCCN1C(=O)[C@H](N)Cc1ccccc1)C(C)C`, the k cat in test [1] came out at 0.133 s⁻¹. For the same molecule, the Ratio in test [2] turned out to be 0.36.
As to `CC(=O)NCCSC(=O)[C@H](CC(C)C)NC(=O)[C@H](CCCN)NC(=O)[C@@H](NC(=O)[C@H](Cc1ccc(O)cc1)NC(=O)[C@H](CCC(N)=O)NC(=O)[C@H](CC(N)=O)NC(=O)[C@H](CC(N)=O)NC(=O)[C@H](Cc1ccccc1)NC(=O)[C@@H]1CCCN1C(=O)[C@H](N)Cc1ccccc1)C(C)C`, the k cat in test [1] was 0.133 s⁻¹. Further, the Ratio in test [2] worked out at 0.42.
As to `CC(=O)NCCSC(=O)[C@H](CC(C)C)NC(=O)[C@H](CCCN)NC(=O)[C@@H](NC(=O)[C@H](Cc1ccc(O)cc1)NC(=O)[C@H](CCC(N)=O)NC(=O)[C@H](CC(N)=O)NC(=O)[C@H](C)NC(=O)[C@H](Cc1ccccc1)NC(=O)[C@@H]1CCCN1C(=O)[C@H](N)Cc1ccccc1)C(C)C`, the k cat in test [1] turned out to be 0.183 s⁻¹. For the same molecule, in test [2], the Ratio came out at 0.6.
